Measurements: US9902986B2, “Enterobactin conjugates and uses thereof” (Massachusetts Institute of Technology, priority 2013, dated 2018)
Entries after “also recorded” stand apart in the source; their conditions may differ.

What was measured:
[1] = test system: various E. coli strains; assay: Antibacterial activity against a panel of E. coli strains; assay type: cell-based, Escherichia coli; conditions: 6 strains of E. coli (K-12, B, H9049, 25922, UTI89, CFT073)
Procedure: (§1) Overnight cultures of the bacterial strains were prepared by inoculating 5 mL of LB with the bacterial freezer stocks and the cultures were incubated at 37° C. in a tabletop incubator shaker set at 150 rpm. The overnight culture grew to saturation and was diluted 1:100 into 5 mL of fresh LB medium containing DP (200 μM) and incubated at 37° C. with shaking at 150 rpm until OD600 reached 0.6. The cultures were subsequently diluted to an OD600 value of 0.001 in 50% MHB medium (11.5 g/L) with or without DP (200 μM). No antibiotic marker was included in these cultures. A 90-μL aliquot of the diluted culture was combined with a 10-μL aliquot of a 10× solution of the tested compounds in a 96-well plate, which was wrapped in […] and incubated at 30° C. with shaking at 150 rpm for 19 h. Bacterial growth was determined by measuring OD600 using a BIOTEK SYNERGY HT plate reader. Each well condition was prepared in duplicate, and at least three independent replicates were conducted on different days. The resulting mean OD600 are reported and the error bars are the standard deviation.
Ampicillin and amoxicillin are β-lactam antibiotics that have periplasmic targets in Gram-negative bacteria and inhibit cell wall biosynthesis. The antibacterial activity of Ent-ampicillin and Ent-amoxicillin conjugates 44 and 45 was evaluated in vitro against a panel of Gram-negative and positive-bacteria.
Select Ent-β-lactam conjugates (Ent-Amp and Ent-Amx) and their glucosylated derivatives (MGE-Amp, MGE-Amx, DGE-Amp, and DGE-Amx) were tested against 6 strains of E. coli. Four of them are non-pathogenic strains, namely K-12, B, H9049, and 25922, and the other two are uropathogenic clinical isolates, namely UTI89 and CFT073.

[2] = test system: E. coli B; assay: Antimicrobial activity assay, E. coli B; assay type: cell-based, Escherichia coli; conditions: 50% MHB, 30° C., t=19 h
Procedure: as §1
In another exemplary experiment, antibacterial activities of the conjugates were tested against E. coli B in 50% MHB at 30° C., t=19 h. DP (200 μM) was added to provide conditions of iron limitation.

[3] = test system: E. coli CFT073; assay: Antimicrobial activity assay in the presence of lipocalin 2; assay type: cell-based, Escherichia coli; conditions: conjugate 100 nM, lcn2 1 μM, M9 minimal media, 37° C., 24 h
Procedure: The bacterial cultures were grown in modified M9 minimal medium (Blango, M. G.; Ott, E. M.; Erman, A.; Veranic, P.; Mulvey, M. A. Forced Resurgence and Targeting of Intracellular Uropathogenic Escherichia coli Reservoirs. PLoS One 2014, 9, e93327-e93335) (Na2HPO4 6.8 g/L, KH2PO4 3 g/L, NaCl 0.5 g/L, NH4Cl 1 g/L, 0.4% glucose, 2 mM MgSO4, 0.1 mM CaCl2, 0.2% casein amino acids, and 16.5 μg/mL of thiamine) overnight. […] The cultures were serially diluted to an OD600 value of 0.00001 in fresh modified M9 minimal medium. Lipocalin 2 (Lcn2) was diluted into PBS buffer to a concentration of 20 μM upon arrival and frozen at −20° C. until use. Bovine serum albumin (BSA, Sigma-Aldrich) was prepared in PBS buffer to achieve a concentration of 20 μM. […] The bacterial growth was determined by measuring OD600 using the plate reader. […] The resulting mean OD600 was reported, and the error bars were the standard deviation. […] In contrast, Lcn2 had no effect of the antibacterial activity of MGE-Amp, MGE-Amx, DGE-Amp, or DGE-Amx.

[4] = test system: E. coli UTI89; assay: Competition assay with native siderophores, E. coli UTI89; assay type: cell-based, Escherichia coli; conditions: conjugate 100 nM, varied Ent, MGE or DGE, 50% MHB, 200 μM DP, 30° C., t=19 h
Procedure: Ent was synthesized following a literature procedure^55 and stored as DMSO stock solution at −20° C. MGE and DGE were prepared from Ent using MceC and IroB as described for MGE-PEG3-N3 and DGE-PEG3-N3.
(§2) In an exemplary experiment, select conjugates (Ent-Amp, MGE-Amp, and DGE-Amp) with select native siderophores (Ent, MGE, and DGE) were tested against the uropathogenic strain E. coli UTI89 in 50% MHB, t=19 h, 30° C. […] The concentration of the conjugates was fixed at 100 nM, and the concentration of the native siderophores was varied. […] These observations indicate that Ent, MGE, Ent-Amp, and MGE-Amp may enter via both FepA and IroN with different efficiency, but DGE and DGE-Amp may only enter via IroN.
as §2, with “In another” for “In an”, “100 nM” for “100 nM,”

[5] = test system: S. aureus ATCC 25923; assay: Antibacterial activity assay, S. aureus; assay type: cell-based, Staphylococcus aureus; conditions: iron limitation (200 μM 2,2′-dipyridyl)
Procedure: No antibiotic marker was included in these cultures. […] Bacterial growth was determined by measuring OD600 using a BIOTEK SYNERGY HT plate reader. Each well condition was prepared in duplicate, and at least three independent replicates were conducted on different days. The resulting mean OD600 are reported and the error bars are the standard deviation.
Ampicillin and amoxicillin are β-lactam antibiotics that have periplasmic targets in Gram-negative bacteria and inhibit cell wall biosynthesis. The antibacterial activity of Ent-ampicillin and Ent-amoxicillin conjugates 44 and 45 was evaluated in vitro against a panel of Gram-negative and positive-bacteria. FIG. 6 provides exemplary results from antibacterial activity assays against select bacterial species that include non-pathogenic and pathogenic E. coli strains and also Staphylococcus aureus. Under conditions of iron limitation (200 μM 2,2′-dipyridyl), the conjugates provide 100- to 1000-fold improved activity against various E. coli strains, including human pathogens, compared to the unmodified antibiotics.

[6] = test system: E. coli CFT073 in the presence of S. aureus 25923; assay: Co-culture of E. coli CFT073 and S. aureus 25923; assay type: cell-based, Escherichia coli; conditions: co-culture in a 1:1 ratio
Description: (FIG. 20A) Images showing three cultures untreated with any antibiotics: E. coli CFT073, S. aureus 25923, and E. coli CFT073 and S. aureus 25923 co-culture (in a 1:1 ratio). (FIG. 20B) Images showing co-cultures of E. coli CFT073 and S. aureus 25923 (in a 1:1 ratio), in the absence of any antibiotics or in the presence of Amp, Amx, Ent-Amp, or Ent-Amx.

Row | SMILES | antibacterial activity against uropathogenic compared to non-pathogenic E. coli [1] | antibacterial activity at 100 nM ([2]; 200 μM DP) | antibacterial activity, comparison ([2]; 200 μM DP) | effect of lipocalin-2 (lcn2) on antibacterial activity [3] | attenuation of antibacterial activity by native siderophores [4] | concentration providing complete growth inhibition ([2]; 200 μM DP (iron-deficient)) [nM] | enhancement of activity compared to the unmodified antibiotics [5] | killing of E. coli CFT073 co-cultured with S. aureus 25923 [6] | concentration at which growth inhibition was observed (attributed to iron deprivation) ([2]; 200 μM DP) [µM]
1 | CC1(C)SC2C(NC(=O)C(NC(=O)CCCc3cn(CCOCCOCCOCCNC(=O)c4cc(O)c(O)c(C(=O)NC5COC(=O)C(NC(=O)c6cc(C7OC(CO)C(O)C(O)C7O)cc(O)c6O)COC(=O)C(NC(=O)c6cccc(O)c6O)COC5=O)c4)nn3)c3ccccc3)C(=O)N2C1C(=O)O (stereo not shown) [MGE-Amp] | greater antibacterial activity against the uropathogenic E. coli compared to non-pathogenic E. coli | inactive | more active against the bacteria than DGE-Amp | no effect; also recorded: unaffected; also recorded: not attenuated | attenuated by Ent, MGE, or DGE | – | – | – | –
2 | CC1(C)SC2C(NC(=O)C(NC(=O)CCCc3cn(CCOCCOCCOCCNC(=O)c4cc(O)c(O)c(C(=O)NC5COC(=O)C(NC(=O)c6cccc(O)c6O)COC(=O)C(NC(=O)c6cccc(O)c6O)COC5=O)c4)nn3)c3ccccc3)C(=O)N2C1C(=O)O (stereo not drawn) [Ent-Amp] | – | – | – | attenuated in the presence of Lcn2 | only attenuated in the presence of Ent or MGE | 100 | no enhancement of activity | killed E. coli CFT073 | –
3 | CC1(C)SC2C(NC(=O)C(NC(=O)CCCc3cn(CCOCCOCCOCCNC(=O)c4cc(O)c(O)c(C(=O)NC5COC(=O)C(NC(=O)c6cc(C7OC(CO)C(O)C(O)C7O)cc(O)c6O)COC(=O)C(NC(=O)c6cc(C7OC(CO)C(O)C(O)C7O)cc(O)c6O)COC5=O)c4)nn3)c3ccccc3)C(=O)N2C1C(=O)O (stereo not shown) [DGE-Amp] | greater antibacterial activity against the uropathogenic E. coli compared to non-pathogenic E. coli | inactive | – | no effect; also recorded: unaffected; also recorded: not attenuated | attenuated by Ent, MGE, or DGE | – | – | – | 10
4 | CC1(C)SC2C(NC(=O)C(NC(=O)CCCc3cn(CCOCCOCCOCCNC(=O)c4cc(O)c(O)c(C(=O)NC5COC(=O)C(NC(=O)c6cccc(O)c6O)COC(=O)C(NC(=O)c6cccc(O)c6O)COC5=O)c4)nn3)c3ccc(O)cc3)C(=O)N2C1C(=O)O (stereo not drawn) [Ent-Amx] | – | – | – | attenuated in the presence of Lcn2 | only attenuated in the presence of Ent or MGE | – | no enhancement of activity | killed E. coli CFT073 | –
